Assay results reported in patent publication US5349127A, “Expression of herbicide metabolizing cytochromes P450” (priority 1992, dated 1994).

How the values were obtained:
[1] = system: S. lividans transformed with pCAO401; assay: Metabolism of 10001 in growing culture, HPLC of supernatant (Example 4); type: in vitro ADME, Streptomyces lividans; conditions: 0.12 mg/ml 10001 in culture
Procedure: (§1) Herbicides and their metabolites are measured by HPLC as described by Romesser et al., BBRC 140: 650-659 (1986), herein incorporated by reference, except that 0.1% H3 PO4 is used in both solvents. Chromatographic identity and quantitation of the herbicides and their resulting metabolites is determined by comparing them chromatographically with authentic standard compounds. Identity of the resulting metabolites is also confirmed by UV spectroscopy.
(§2) Separate cultures (50 ml) inoculated with S. lividans C37, S. lividans transformed with pCAO400 or S. lividans transformed with pCAO401 in sporulation broth containing 0.12 mg/ml of 10001 were grown with shaking at 30° C. Aliquots (1.5 ml) of each culture were removed at 24, 32, 48 and 56 hours after inoculation and the supernatant of each aliquot was analyzed by HPLC for its concentration of 10001 and its metabolites 10002 or 10003.

[2] = system: S. lividans transformed with pCAO400; assay: as above; type: in vitro ADME, Streptomyces lividans; conditions: 0.12 mg/ml 10001 in culture
Procedure: as §1, §2

[3] = system: S. griseolus PH3826; assay: Metabolism of 10001 by strains transformed with pPAT108 (Example 14); type: in vitro ADME, Streptomyces griseolus; conditions: substrate 10001 120 ug/ml
Procedure: (§3) S. griseolus PH2003, S. griseus PH4001, S. ambofaciens PH4002, and S. lividans JI1326 were transformed with the plasmid pPAT108. The transformed S. griseolus strain, PH3826, was cultured for 24 hours in 150 mls of sporulation broth with 5 ug/ml thiostrepton. The transformed S. griseus strain, PH3832, and the transformed S. ambofaciens strain, PH3834, were cultured for 24 hours in 150 mls of trypticase soy broth with 5 ug/ml thiostrepton. The transformed S. lividans strain, PH3822, was similarly cultured in 150 mls of YEME broth with 5 ug/ml thiostrepton. Three hours before harvesting the cells, 50 mls of fresh medium of the same type with 5 ug/ml thiostrepton was added to each culture. The cells from each of the cultures were harvested by centrifugation, washed twice with 50 mMMOPS, pH7.2 and resuspended in five cell volumes of MOPS containing 0.2% glucose and 120 ug/ml of the sulfonylurea 10001. The cell suspensions were incubated at 30° C. with shaking and aliquots were removed at 0.5, 1, 2 and 4 hours. The supernatant of each aliquot was analyzed by HPLC and the concentration of the sulfonylurea compound 10001 and its metabolites 10002 and 10003 were determined.

[4] = system: S. griseus PH3817; assay: Metabolism of 10001 by strains transformed with pCS325 (Example 15); type: in vitro ADME, Streptomyces griseus; conditions: substrate 10001
Procedure: as §3
S. griseolus PH2003, S. griseus PH4001, S. ambofaciens PH4002, and S. lividans JI1326 were transformed with the plasmid pCS325. Cells of the transformed strains of S. griseolus PH3809, S. griseus PH3817, S. ambofaciens PH3818, and S. lividans PH3816, were grown and treated as described in Example 14, and the concentrations of the sulfonylurea compound 10001 and its metabolites 10002 and 10003 were determined.

[5] = system: S. ambofaciens PH3834; assay: Metabolism of 10001 by strains transformed with pPAT108 (Example 14); type: in vitro ADME, Streptomyces ambofaciens; conditions: substrate 10001 120 ug/ml
Procedure: as §3

[6] = system: S. lividans PH3822; assay: as above; type: in vitro ADME, Streptomyces lividans; conditions: substrate 10001 120 ug/ml
Procedure: as §3

[7] = system: S. griseolus ATCC 11796 induced with 10001; assay: Sulfonylurea metabolism by washed cell suspension (Examples 5-9); type: in vitro ADME, Streptomyces griseolus
[8] = system: S. griseolus ATCC 11796 uninduced; assay: as above; type: in vitro ADME, Streptomyces griseolus
Procedure: as §1
A 100 ml culture of S. griseolus ATCC 11796 in sporulation broth and a 50 ml culture of S. lividans transformed with pCAO400 in YEME broth were prepared and incubated for 24 hours as described. At that time, the S. griseolus culture was split into two 50 ml aliquots into two separate flasks and 25 ml of fresh sporulation broth was added to each and 9 mg of […] was added to one of these cultures to induce cytochrome P450SU1 expression. Fresh YEME broth (25 ml) was added to the S. lividans culture. After an additional 6 hours growth at 30° C., the cells in each culture were harvested as described above, washed twice with MOPS (50 mM, pH 7.2) and recentrifuged. The cell pellets were resuspended in four cell volumes of MOPS (50 mM, pH 7.2) containing 0.2% glucose and about 100 μg/ml of 10004. These cell suspensions were incubated at 30° C. with shaking and aliqouts were taken at 2 and 5.5 hours. The supernatant of each aliquot was analyzed by HPLC and the concentrations of the sulfonylurea compound 10004 and its metabolite 10005 were determined.
S. lividans transformed respectively with pCAO200SU1-FeS-B#9, pCAO200SU#112and pCAO200 were cultured for 36 hours in 400 ml of YEME broth at 30° C. S. griseolus ATCC 11796 was similarly cultured in 400 ml of sporulation broth. Six hours before harvesting the cells, 150 ml of fresh YEME broth was added to the S. lividans cells, and the S. griseolus cells were split into two 200 ml cultures with 100 ml of fresh sporulation broth added to each. 10001 (36 mg) was added to one of the two S. griseolus cultures to induce cytochrome P450SU1. The cells were prepared as described above in Example 5 and the concentrations of the sulfonylurea compound 10006 and its metabolites 10007, 10008 or 10009 were determined.

Compound	concentration in supernatant ([1]; 0 h) [µM]	concentration in supernatant ([1]; 24 h) [µM]	concentration in supernatant ([1]; 32 h) [µM]	concentration in supernatant ([1]; 48 h) [µM]	concentration in supernatant ([1]; 56 h) [µM]	concentration in supernatant ([2]; 0 h) [µM]	concentration in supernatant ([2]; 24 h) [µM]	concentration in supernatant ([2]; 32 h) [µM]	concentration in supernatant ([2]; 48 h) [µM]	concentration in supernatant ([2]; 56 h) [µM]	concentration in supernatant ([3]; 0.5 h) [µM]	concentration in supernatant ([3]; 1.0 h) [µM]	concentration in supernatant ([3]; 2.0 h) [µM]	concentration in supernatant ([3]; 4.0 h) [µM]	concentration in supernatant ([4]; 0.5 h) [µM]	concentration in supernatant ([4]; 1.0 h) [µM]	concentration in supernatant ([4]; 2.0 h) [µM]	concentration in supernatant ([4]; 4.0 h) [µM]	concentration in supernatant ([5]; 1.0 h) [µM]	concentration in supernatant ([5]; 2.0 h) [µM]	further results
CCOC(=O)c1ccccc1S(=O)(=O)NC(=O)Nc1nc(O)cc(Cl)n1 [compound 10002, N-[(4-chloro-6-hydroxy-pyrimidin-2-yl)aminocarbonyl]-2-ethoxycarbonylbenzenesulfonamide]	0	32	44	63	71	0	17	25	39	47	41	101	171	189	37	73	167	220	11	27	concentration in supernatant ([5]; 0.5 h): 6 µM; concentration in supernatant ([5]; 4.0 h): 64 µM; concentration in supernatant ([6]; 0.5 h): 2 µM; concentration in supernatant ([6]; 1.0 h): 5 µM; concentration in supernatant ([6]; 2.0 h): 10 µM; concentration in supernatant ([6]; 4.0 h): 25 µM
CCOC(=O)c1ccccc1S(=O)(=O)NC(=O)Nc1nc(Cl)cc(OC)n1 [compound 10001, N-[(4-chloro-6-methoxy-pyrimidin-2-yl)aminocarbonyl]-2-ethoxycarbonylbenzenesulfonamide]	284	230	203	123	105	300	269	240	184	137	222	137	19	0	226	181	69	0	278	250	concentration in supernatant ([7]; substrate 10001, 2 h): 220 µM; concentration in supernatant ([7]; substrate 10001, 4 h): 36 µM; concentration in supernatant ([7]; substrate 10001, 6 h): 3 µM; concentration in supernatant ([5]; 4.0 h): 191 µM; concentration in supernatant ([8]; substrate 10001, 2 h): 244 µM; concentration in supernatant ([8]; substrate 10001, 4 h): 167 µM; concentration in supernatant ([8]; substrate 10001, 6 h): 86 µM; concentration in supernatant ([6]; 0.5 h): 294 µM; concentration in supernatant ([6]; 1.0 h): 284 µM; concentration in supernatant ([6]; 2.0 h): 262 µM; concentration in supernatant ([6]; 4.0 h): 232 µM
COc1cc(Cl)nc(NC(=O)NS(=O)(=O)c2ccccc2C(=O)O)n1 [compound 10003, N-[(4-chloro-6-methoxy-pyrimidin-2-yol)aminocarbonyl]-2-carboxybenzenesulfonamide]	0	26	36	46	48	0	16	22	28	29	22	58	97	107	3	7	16	23	6	14	concentration in supernatant ([7]; substrate 10001, 2 h): 76 µM; concentration in supernatant ([7]; substrate 10001, 4 h): 128 µM; concentration in supernatant ([7]; substrate 10001, 6 h): 142 µM; concentration in supernatant ([5]; 0.5 h): 1 µM; concentration in supernatant ([5]; 4.0 h): 33 µM; concentration in supernatant ([8]; substrate 10001, 2 h): 14 µM; concentration in supernatant ([8]; substrate 10001, 4 h): 37 µM; concentration in supernatant ([8]; substrate 10001, 6 h): 62 µM; concentration in supernatant ([6]; 0.5 h): 1 µM; concentration in supernatant ([6]; 1.0 h): 3 µM; concentration in supernatant ([6]; 2.0 h): 5 µM; concentration in supernatant ([6]; 4.0 h): 15 µM
COC(=O)c1ccccc1S(=O)(=O)NC(=O)Nc1nc(C)cc(C)n1 [compound 10010, N-[(4,6-dimethylpyrimidin-2-yl)aminocarbonyl]-2-methoxycarbonylbenzenesulfonamide]	–	–	–	–	–	–	–	–	–	–	–	–	–	–	–	–	–	–	–	–	concentration in supernatant ([7]; substrate 10010, 2 h): 40 µM; concentration in supernatant ([7]; substrate 10010, 4 h): 8 µM; concentration in supernatant ([7]; substrate 10010, 6 h): 4 µM; concentration in supernatant ([8]; substrate 10010, 2 h): 70 µM; concentration in supernatant ([8]; substrate 10010, 4 h): 49 µM; concentration in supernatant ([8]; substrate 10010, 6 h): 37 µM
